Legend:
[1] = target: T1, Tyrosine-protein phosphatase non-receptor type 1 (Homo sapiens, UniProt P18031); test: Protein-tyrosine phosphatase 1B (PTP 1B) site 2 Ligands were identified using [13C]-labeled protein and their Dissociation Constants were determined
T1 sequence (P18031 whole entry): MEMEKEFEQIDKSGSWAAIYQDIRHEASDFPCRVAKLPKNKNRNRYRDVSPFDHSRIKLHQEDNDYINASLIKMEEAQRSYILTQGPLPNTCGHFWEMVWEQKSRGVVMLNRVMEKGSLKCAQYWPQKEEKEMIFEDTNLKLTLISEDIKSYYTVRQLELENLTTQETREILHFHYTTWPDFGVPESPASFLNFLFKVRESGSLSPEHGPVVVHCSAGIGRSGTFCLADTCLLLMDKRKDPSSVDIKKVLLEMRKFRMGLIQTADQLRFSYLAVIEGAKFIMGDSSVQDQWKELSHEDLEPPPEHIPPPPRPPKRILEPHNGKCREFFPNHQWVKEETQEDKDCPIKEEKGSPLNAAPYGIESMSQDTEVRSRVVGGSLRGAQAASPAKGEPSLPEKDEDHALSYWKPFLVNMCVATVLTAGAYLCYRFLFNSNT

[2] = Inhibitory activity against Leukocyte antigen related Tyrosine Phosphatase (Receptor linked protein tyrosine phosphatase LAR) was determined
[3] = target: T2, Receptor-type tyrosine-protein phosphatase C (Homo sapiens, UniProt P08575); test: Inhibitory activity against CD45 tyrosine phosphatase was determined
T2 sequence (P08575 whole entry): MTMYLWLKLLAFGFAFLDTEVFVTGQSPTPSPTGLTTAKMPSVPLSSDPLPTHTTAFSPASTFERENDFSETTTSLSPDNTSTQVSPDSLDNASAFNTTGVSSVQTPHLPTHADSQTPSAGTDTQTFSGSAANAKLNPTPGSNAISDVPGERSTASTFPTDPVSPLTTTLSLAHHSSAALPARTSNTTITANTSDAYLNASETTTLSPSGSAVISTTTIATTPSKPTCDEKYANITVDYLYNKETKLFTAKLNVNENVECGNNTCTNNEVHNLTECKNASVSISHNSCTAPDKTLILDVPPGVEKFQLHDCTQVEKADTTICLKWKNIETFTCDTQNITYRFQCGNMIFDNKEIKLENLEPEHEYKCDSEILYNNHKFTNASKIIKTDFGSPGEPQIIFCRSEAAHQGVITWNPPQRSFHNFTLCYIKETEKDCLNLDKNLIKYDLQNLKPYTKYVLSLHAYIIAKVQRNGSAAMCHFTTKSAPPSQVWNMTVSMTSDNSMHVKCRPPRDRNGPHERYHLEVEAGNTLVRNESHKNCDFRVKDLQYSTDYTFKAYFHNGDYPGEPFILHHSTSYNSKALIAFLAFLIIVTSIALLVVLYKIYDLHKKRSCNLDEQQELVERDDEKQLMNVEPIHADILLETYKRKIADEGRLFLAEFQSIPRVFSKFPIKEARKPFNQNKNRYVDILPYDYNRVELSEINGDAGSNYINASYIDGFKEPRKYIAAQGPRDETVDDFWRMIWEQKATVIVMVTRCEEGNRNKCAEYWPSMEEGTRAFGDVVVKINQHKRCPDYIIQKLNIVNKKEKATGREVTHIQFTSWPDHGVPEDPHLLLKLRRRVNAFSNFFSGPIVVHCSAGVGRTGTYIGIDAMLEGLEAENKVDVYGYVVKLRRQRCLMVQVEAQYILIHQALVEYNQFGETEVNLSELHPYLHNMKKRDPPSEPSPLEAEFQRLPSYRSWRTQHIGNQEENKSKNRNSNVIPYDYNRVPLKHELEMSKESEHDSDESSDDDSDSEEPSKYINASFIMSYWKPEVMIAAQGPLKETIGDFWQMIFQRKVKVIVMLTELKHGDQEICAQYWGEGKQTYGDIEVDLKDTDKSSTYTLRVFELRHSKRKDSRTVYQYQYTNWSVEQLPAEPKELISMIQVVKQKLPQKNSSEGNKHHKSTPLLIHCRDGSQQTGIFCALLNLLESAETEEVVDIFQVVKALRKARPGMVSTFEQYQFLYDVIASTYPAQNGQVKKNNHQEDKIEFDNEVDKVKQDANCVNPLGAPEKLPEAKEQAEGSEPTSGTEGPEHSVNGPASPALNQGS

[4] = target: Tyrosine-protein phosphatase non-receptor type 2 (Homo sapiens, UniProt P17706); test: Inhibitory constant against T cell protein tyrosine phosphatase; format: single protein
[5] = target: Protein phosphatase 3 catalytic subunit alpha (Homo sapiens, UniProt Q08209); test: Inhibitory activity against (calcineurin) was determined
[6] = target: T1, Tyrosine-protein phosphatase non-receptor type 1; test: Inhibitory activity against Protein-tyrosine phosphatase 1B (PTP 1B) was determined
[7] = target: T3, M-phase inducer phosphatase 3 (Homo sapiens, UniProt P30307); test: Inhibitory activity against cell division cycle 25 degree C (Cdc25 C) was determined
T3 sequence (P30307 whole entry): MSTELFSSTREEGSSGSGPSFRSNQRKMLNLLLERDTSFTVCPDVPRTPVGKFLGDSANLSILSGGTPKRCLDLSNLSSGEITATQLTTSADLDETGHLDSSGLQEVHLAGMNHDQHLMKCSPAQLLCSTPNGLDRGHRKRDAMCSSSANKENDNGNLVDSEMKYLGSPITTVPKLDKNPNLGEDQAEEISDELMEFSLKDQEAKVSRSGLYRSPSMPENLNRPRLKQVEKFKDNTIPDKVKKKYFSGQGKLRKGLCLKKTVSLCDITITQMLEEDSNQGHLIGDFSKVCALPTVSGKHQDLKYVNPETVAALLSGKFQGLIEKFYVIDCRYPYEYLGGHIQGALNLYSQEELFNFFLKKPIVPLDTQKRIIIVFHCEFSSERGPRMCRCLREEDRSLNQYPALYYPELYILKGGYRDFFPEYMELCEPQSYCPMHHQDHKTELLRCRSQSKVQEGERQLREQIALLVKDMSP

[8] = target: T3, M-phase inducer phosphatase 3; test: Inhibitory activity against Cell division cycle 25 degree C was determined

Tyrosine-protein phosphatase non-receptor type 2, sequence (P17706 whole entry, looked up): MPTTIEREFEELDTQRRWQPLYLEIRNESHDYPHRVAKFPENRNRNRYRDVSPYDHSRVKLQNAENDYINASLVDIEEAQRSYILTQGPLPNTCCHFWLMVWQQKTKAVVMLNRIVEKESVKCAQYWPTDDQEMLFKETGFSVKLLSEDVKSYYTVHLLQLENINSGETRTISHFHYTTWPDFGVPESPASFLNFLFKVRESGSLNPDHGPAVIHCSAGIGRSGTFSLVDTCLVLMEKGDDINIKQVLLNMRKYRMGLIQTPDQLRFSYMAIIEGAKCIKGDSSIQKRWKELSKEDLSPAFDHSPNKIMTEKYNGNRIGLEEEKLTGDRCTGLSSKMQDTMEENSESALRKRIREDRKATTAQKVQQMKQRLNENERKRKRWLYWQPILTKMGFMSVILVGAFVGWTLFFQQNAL

Ki [4] | Ki [6] | Compound | other results
 |  | N#Cc1cc(C(=O)O)c(O)c(Br)c1N | Kd [1]: 910 µM
 |  | Nc1ccc(C(=O)O)c(O)c1 [AMINOSALICYLIC ACID] | Kd [1]: 1200 µM
0.23 µM | 0.04 µM | CCc1cc(CC(NC(C)=O)C(=O)NCCCCOc2cc(Cl)cc(O)c2C(=O)OC)ccc1N(C(=O)C(=O)O)c1ccccc1C(=O)O (stereo not drawn) | Ki [2]: > 3 µM; Ki [3]: > 3 µM; Ki [5]: > 3 µM; Ki [7]: > 3 µM
0.024 µM |  | NC(=O)[C@H](Cc1ccc(C(F)(F)P(=O)(O)O)cc1)NC(=O)[C@H](CC(=O)O)NC(=O)Cc1ccc(C(F)(F)P(=O)(O)O)cc1 | 
0.83 µM | 0.37 µM | CCc1cc(CC(NC(C)=O)C(=O)NCCCCOc2cccc(O)c2C(=O)NC)ccc1N(C(=O)C(=O)O)c1ccccc1C(=O)O (stereo not drawn) | 
 |  | Cc1cc(C)c2nc(C(=O)O)ccc2c1O | Kd [1]: 15600 µM
2.6 µM | 0.39 µM | CCc1cc(CC(NC(C)=O)C(=O)NCCCCOc2ccc(Br)c(O)c2C(=O)OC)ccc1N(C(=O)C(=O)O)c1ccccc1C(=O)O (stereo not drawn) | 
0.86 µM | 1.6 µM | CCc1cc(CC(NC(C)=O)C(=O)NCCCCOc2ccccc2C(=O)OC)ccc1N(C(=O)C(=O)O)c1ccccc1C(=O)O (stereo not drawn) | 
0.073 µM | 0.042 µM | CCc1cc(CC(NC(C)=O)C(=O)NCCCCOc2cccc(O)c2C(=O)O)ccc1N(C(=O)C(=O)O)c1ccccc1C(=O)O (stereo not drawn) | 
0.12 µM | 0.13 µM | CCc1cc(CC(NC(C)=O)C(=O)NCCCCOc2cccc(O)c2[N+](=O)[O-])ccc1N(C(=O)C(=O)O)c1ccccc1C(=O)O (stereo not drawn) | 
0.84 µM | 0.56 µM | CCc1cc(CC(NC(C)=O)C(=O)NCCCCOc2ccc(-c3ccccc3)c(O)c2C(=O)OC)ccc1N(C(=O)C(=O)O)c1ccccc1C(=O)O (stereo not drawn) | 
0.065 µM |  | CCc1cc(CC(NC(C)=O)C(=O)NCCCCOc2cccc(O)c2C(=O)OC)ccc1N(C(=O)C(=O)O)c1ccccc1C(=O)O (stereo not drawn) | 
0.47 µM |  | C=CCOC(=O)N[C@@H](Cc1ccc(N(C(=O)C(=O)O)c2ccccc2C(=O)O)cc1)C(=O)NCCCCOc1cccc(O)c1C(=O)OC | Ki [2]: 33 µM; Ki [3]: > 200 µM; Ki [5]: > 200 µM; Ki [8]: 178 µM

Reference: ChEMBL document CHEMBL1145861, “Selective protein tyrosine phosphatase 1B inhibitors: targeting the second phosphotyrosine binding site with non-carboxylic acid-containing ligands” (J Med Chem, 2003)
